Test results taken from patent publication US20220259202A1, “1-(4-(AMINOMETHYL)BENZYL)-2-BUTYL-2H-PYRAZOLO[3,4-C]QUINOLIN-4-AMINE DERIVATIVES AND RELATED COMPOUNDS AS TOLL-LIKE RECEPTOR (TLR) 7/8 AGONISTS, AS WELL AS ANTIBODY DRUG CONJUGATES THEREOF FOR USE IN CANCER THERAPY AND DIAGNOSIS” (SUTRO BIOPHARMA, INC., priority 2019, published 2022).

Assays:
[1] = target: T1, mouse TLR7 (Mus musculus, UniProt P58681); assay: HEK293 SEAP reporter assay, mouse TLR7 (Biological Example 1); assay type: cell-based; details: HEK293-mouseTLR7 reporter cells, 4 hrs; read-out: mTLR7 EC50
T1 construct: host or cells: HEK293
T1 sequence (P58681 27-1050): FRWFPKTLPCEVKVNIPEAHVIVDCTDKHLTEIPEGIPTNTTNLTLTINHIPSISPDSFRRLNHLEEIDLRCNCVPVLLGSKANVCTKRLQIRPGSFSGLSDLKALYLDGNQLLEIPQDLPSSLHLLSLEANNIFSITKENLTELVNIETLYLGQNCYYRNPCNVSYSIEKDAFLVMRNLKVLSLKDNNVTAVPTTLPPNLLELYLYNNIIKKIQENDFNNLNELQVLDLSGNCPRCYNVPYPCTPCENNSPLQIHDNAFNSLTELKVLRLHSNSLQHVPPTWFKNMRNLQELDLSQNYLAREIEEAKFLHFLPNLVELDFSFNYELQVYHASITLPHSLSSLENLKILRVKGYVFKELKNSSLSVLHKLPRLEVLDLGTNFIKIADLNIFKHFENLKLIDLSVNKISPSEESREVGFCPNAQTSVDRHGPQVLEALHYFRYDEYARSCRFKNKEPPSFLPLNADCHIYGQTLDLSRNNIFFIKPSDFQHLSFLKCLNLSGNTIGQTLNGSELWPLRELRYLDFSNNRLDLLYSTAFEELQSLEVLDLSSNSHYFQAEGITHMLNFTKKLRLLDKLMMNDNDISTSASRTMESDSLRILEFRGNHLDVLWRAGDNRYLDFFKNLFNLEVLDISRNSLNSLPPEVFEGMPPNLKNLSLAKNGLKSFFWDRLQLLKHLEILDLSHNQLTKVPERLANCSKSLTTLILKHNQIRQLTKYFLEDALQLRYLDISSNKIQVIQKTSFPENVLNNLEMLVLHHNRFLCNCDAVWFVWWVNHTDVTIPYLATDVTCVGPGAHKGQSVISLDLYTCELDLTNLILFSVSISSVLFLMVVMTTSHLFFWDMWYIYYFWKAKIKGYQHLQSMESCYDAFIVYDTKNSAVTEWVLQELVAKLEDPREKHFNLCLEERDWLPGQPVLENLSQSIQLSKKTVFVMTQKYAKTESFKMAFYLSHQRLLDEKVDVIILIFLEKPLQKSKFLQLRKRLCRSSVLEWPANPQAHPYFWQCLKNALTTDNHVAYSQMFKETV
Experimental: In this example, the activity of the TLR7 agonists to activate human TLR7, hTLR7 (or human TLR8, hTLR8, or mouse TLR7, mTLR7) pathway was evaluated on HEK293 reporter cells transfected with human TLR7 (or mouse TLR7 or human TLR8) and an inducible SEAP (secreted embryonic alkaline phosphatase) reporter gene. The SEAP reporter gene is placed under the control of the IFN-β minimal promoter fused to five NF-κB and AP-1-binding sites. Stimulation with a TLR7 agonist activates NF-KB and AP-1 which induces the production of SEAP. Levels of SEAP was determined with HEK-Blue Detection medium.
HEK293-humanTLR7, HEK293-mouseTLR7 and HEK293-humanTLR8 reporter cell lines were purchased from Invivogen and cell lines were maintained in manufacture recommended culture medium with required supplemental antibiotics. On the day of assay, the cells were harvested with Accutase and counted by the Vi-CELL Cell Viability Analyzers. Cells were re-suspended in HEK blue detection medium and a total of 10000 cells were seeded in each well of a 384-well flat bottom plate. Serial dilutions of TLR7 agonists free drugs (1:3 serial dilution starting from 5 μM) was added into treatment wells. Assay plates were cultured at 37° C. in a CO2 incubator for […]. HEK-Blue™ Detection medium changes to a purple/blue color in the presence of secreted SEAP, which can be detected by spectrophotometry at 620-655 nm. […]

[2] = test system: cyno PBMCs; assay: Compound-induced cytokine release (ELISA); assay type: cell-based, cynomolgus monkey; details: IL-6 and MCP-1 (FIG. 5A-5B); 48 hr
Experimental: This example evaluates the ability of Compound 1 to induce cytokine release in human PBMCs, cyno PBMCs and mouse splenocytes. Compound A and resiquimod, above, were used as controls in the assays.
Human and cyno PBMCs, mouse splenocytes were isolated as described in previous example. On the day of the assay, 300k of PBMC or splenocytes in 50 μL of culture medium were seeded in 96-well cell culture plates. 50 μL of the test articles (formulated at 2× of starting concentration) were then added into the well. The cell mixtures were co-cultured in the presence of test articles and 10 μg/mL LPS-RS for 24 hrs (human PBMCs) or 48 hr (cyno PBMCs and mouse splenocytes). Released cytokines in cell culture medium were measured by ELISA.

EC50 [1]: 0.0291 µM
SMILES: CCCCn1nc2c(N)nc3ccccc3c2c1Cc1ccc(CN)cc1 [Compound 1, 1-(4-(aminomethyl)benzyl)-2-butyl-2H-pyrazolo[3,4-c]quinolin-4-amine]
cytokine release from cyno PBMCs [2]: stimulated strong
